Bridge positions count the residues as written; N and C are the ends. Square brackets hold non-standard residues; d marks the D form. Peptide text beside a SMILES is read from it. * marks the point of attachment. Bip = N[C@@H](Cc1ccc(-c2ccccc2)cc1)C(=O)O; Phe(3-Me) = Cc1cccc(C[C@H](N)C(=O)O)c1; 4Pal = N[C@@H](Cc1ccncc1)C(=O)O; Cha = N[C@@H](CC1CCCCC1)C(=O)O; Carboxymethyl = O=C(O)C*; Orn = NCCC[C@H](N)C(=O)O; Aun = NCCCCCCCCCCC(=O)O; Dab = NCC[C@H](N)C(=O)O; Dap = NC[C@H](N)C(=O)O; AEEA = NCCOCCOCC(=O)O
Target: T1, PD-1/PD-L1 interaction (PE-labeled human PD-L1-Ig binding to Jurkat cell line over-expressing human PD-1) (Homo sapiens, UniProt Q15116)
T1 construct: expressed in transfected cells; host or cells: Jurkat
Assay: Jurkat-PD-1 Cell Binding High-Content Screening Assay (CBA)
Assay type: cell-based
Conditions: Jurkat cell line over-expressing human PD-1; PE-labeled PD-L1-Ig 20 nM final; read-out: Jurkat hPD1-PDL1 IC50
Method in brief: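 Binding of fluorescent PD-L1-Ig (20 nM final) to Jurkat-PD-1 cells was measured by automated imaging after 1 h, following a 2 h compound pre-treatment at 37° C.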

T1 sequence (Q15116 25-288): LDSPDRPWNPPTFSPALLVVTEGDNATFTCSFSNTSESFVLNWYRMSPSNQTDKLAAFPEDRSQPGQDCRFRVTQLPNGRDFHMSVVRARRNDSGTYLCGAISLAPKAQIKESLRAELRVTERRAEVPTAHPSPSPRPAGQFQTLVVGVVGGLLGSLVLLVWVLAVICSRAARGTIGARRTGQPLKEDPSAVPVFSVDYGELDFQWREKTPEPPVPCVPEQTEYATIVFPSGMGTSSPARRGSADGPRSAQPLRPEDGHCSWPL

| IC50 [nM] | SMILES |
| --- | --- |
| 19.7 | Cc1cccc(C[C@@H]2NC(=O)[C@H](CC(=O)O)NC(=O)[C@H](Cc3ccc(OCC(=O)O)cc3)NC(=O)[C@H](Cc3ccc(OCC(=O)O)cc3)NC(=O)CSC[C@@H](C(=O)NCCOCCOCC(=O)NCCCCCCCCCCC(=O)O)NC(=O)[C@H](CO)NC(=O)[C@H](C(C)C)NC(=O)[C@H](CC(C)C)NC(=O)[C@H](CCN)NC(=O)[C@@H](CC(C)C)NC(=O)[C@H](CCCN)NC(=O)[C@H](C(C)C)NC(=O)[C@H](Cc3ccc(-c4ccccc4)cc3)NC(=O)[C@@H](CC(C)C)NC2=O)c1 [Compound 1149] ({CH2CO}-Y(Carboxymethyl)Y(Carboxymethyl)D[Phe(3-Me)][dL][Bip]V[Orn][dL][Dab]LVSC[AEEA][Aun]-OH; thioether N-14) |
| 33.5 | CC[C@H](C)[C@@H]1NC(=O)[C@H](Cc2ccc(-c3ccccc3)cc2)NC(=O)[C@H](C(C)C)NC(=O)[C@H](Cc2c[nH]c3ccccc23)NC(=O)[C@H](CC(=O)O)NC(=O)[C@H](Cc2ccc(OCC(=O)O)cc2)NC(=O)[C@H](Cc2ccncc2)NC(=O)CSC[C@@H](C(=O)NCCOCCOCC(=O)NCCCCCCCCCCC(=O)O)NC(=O)[C@H]([C@@H](C)O)NC(=O)[C@H](C(C)C)NC(=O)[C@H](CC(C)C)NC(=O)[C@H](CCN)NC(=O)[C@@H](CC(C)C)NC(=O)[C@H](CCCN)NC1=O [Compound 1150] ({CH2CO}-[4Pal]Y(Carboxymethyl)DWV[Bip]I[Orn][dL][Dab]LVTC[AEEA][Aun]-OH; thioether N-14) |
| 33.4 | CC[C@H](C)[C@@H]1NC(=O)[C@H](Cc2ccc(-c3ccccc3)cc2)NC(=O)[C@H](C(C)C)NC(=O)[C@H](Cc2c[nH]c3ccccc23)NC(=O)[C@H](CC(=O)O)NC(=O)[C@H](Cc2ccc(OCC(=O)O)cc2)NC(=O)[C@H](Cc2ccncc2)NC(=O)CSC[C@@H](C(=O)N[C@@H](CCCN)C(=O)NCCOCCOCC(=O)NCCCCCCCCCCC(=O)O)NC(=O)[C@H]([C@@H](C)O)NC(=O)[C@H](C(C)C)NC(=O)[C@H](CC(C)C)NC(=O)[C@H](CCN)NC(=O)[C@@H](CC(C)C)NC(=O)[C@H](CCCN)NC1=O [Compound 1159] ({CH2CO}-[4Pal]Y(Carboxymethyl)DWV[Bip]I[Orn][dL][Dab]LVTC[Orn][AEEA][Aun]-OH; thioether N-14) |
| 21 | CC[C@H](C)[C@@H]1NC(=O)[C@H](Cc2ccc(-c3ccccc3)cc2)NC(=O)[C@H](C(C)C)NC(=O)[C@H](Cc2c[nH]c3ccccc23)NC(=O)[C@H](CC(=O)O)NC(=O)[C@H](Cc2ccc(OCC(=O)O)cc2)NC(=O)[C@H](Cc2ccncc2)NC(=O)CSC[C@@H](C(=O)N[C@@H](CCCCN)C(=O)NCCOCCOCC(=O)NCCCCCCCCCCC(=O)O)NC(=O)[C@H]([C@@H](C)O)NC(=O)[C@H](C(C)C)NC(=O)[C@H](CC(C)C)NC(=O)[C@H](CCN)NC(=O)[C@@H](CC(C)C)NC(=O)[C@H](CCCN)NC1=O [Compound 1160] ({CH2CO}-[4Pal]Y(Carboxymethyl)DWV[Bip]I[Orn][dL][Dab]LVTCK[AEEA][Aun]-OH; thioether N-14) |
| 25.3 | CC[C@H](C)[C@@H]1NC(=O)[C@H](Cc2ccc(-c3ccccc3)cc2)NC(=O)[C@H](C(C)C)NC(=O)[C@H](Cc2c[nH]c3ccccc23)NC(=O)[C@H](CC(=O)O)NC(=O)[C@H](Cc2ccc(OCC(=O)O)cc2)NC(=O)[C@H](Cc2ccncc2)NC(=O)CSC[C@@H](C(=O)N[C@@H](CCCNC(=N)N)C(=O)NCCOCCOCC(=O)NCCCCCCCCCCC(=O)O)NC(=O)[C@H]([C@@H](C)O)NC(=O)[C@H](C(C)C)NC(=O)[C@H](CC(C)C)NC(=O)[C@H](CCN)NC(=O)[C@@H](CC(C)C)NC(=O)[C@H](CCCN)NC1=O [Compound 1161] ({CH2CO}-[4Pal]Y(Carboxymethyl)DWV[Bip]I[Orn][dL][Dab]LVTCR[AEEA][Aun]-OH; thioether N-14) |
| 20.8 | Cc1cccc(C[C@@H]2NC(=O)[C@H](CC(=O)O)NC(=O)[C@H](Cc3ccncc3)NC(=O)[C@H](Cc3ccc(OCC(=O)O)cc3)NC(=O)CSC[C@@H](C(=O)NCCOCCOCC(=O)NCCCCCCCCCCC(=O)O)NC(=O)[C@H]([C@@H](C)O)NC(=O)[C@H](C(C)C)NC(=O)[C@H](CC3CCCCC3)NC(=O)[C@H](CCN)NC(=O)[C@@H](CC(C)C)NC(=O)[C@H](CCCN)NC(=O)[C@H](C(C)C)NC(=O)[C@H](Cc3ccc(-c4ccccc4)cc3)NC(=O)[C@H](C(C)C)NC2=O)c1 [Compound 1162] ({CH2CO}-Y(Carboxymethyl)[4Pal]D[Phe(3-Me)]V[Bip]V[Orn][dL][Dab][Cha]VTC[AEEA][Aun]-OH; thioether N-14) |
| 55.1 | Cc1cccc(C[C@@H]2NC(=O)[C@H](CC(=O)O)NC(=O)[C@H](Cc3ccncc3)NC(=O)[C@H](Cc3ccc(OCC(=O)O)cc3)NC(=O)CSC[C@@H](C(=O)N[C@@H](CN)C(=O)NCCCCCCCCCCC(=O)O)NC(=O)[C@H]([C@@H](C)O)NC(=O)[C@H](C(C)C)NC(=O)[C@H](CC3CCCCC3)NC(=O)[C@H](CCN)NC(=O)[C@@H](CC(C)C)NC(=O)[C@H](CCCN)NC(=O)[C@H](C(C)C)NC(=O)[C@H](Cc3ccc(-c4ccccc4)cc3)NC(=O)[C@H](C(C)C)NC2=O)c1 [Compound 1163] ({CH2CO}-Y(Carboxymethyl)[4Pal]D[Phe(3-Me)]V[Bip]V[Orn][dL][Dab][Cha]VTC[Dap][Aun]-OH; thioether N-14) |
| 122 | Cc1cccc(C[C@@H]2NC(=O)[C@H](CC(=O)O)NC(=O)[C@H](Cc3ccncc3)NC(=O)[C@H](Cc3ccc(OCC(=O)O)cc3)NC(=O)CSC[C@@H](C(=O)N[C@@H](CCN)C(=O)NCCCCCCCCCCC(=O)O)NC(=O)[C@H]([C@@H](C)O)NC(=O)[C@H](C(C)C)NC(=O)[C@H](CC3CCCCC3)NC(=O)[C@H](CCN)NC(=O)[C@@H](CC(C)C)NC(=O)[C@H](CCCN)NC(=O)[C@H](C(C)C)NC(=O)[C@H](Cc3ccc(-c4ccccc4)cc3)NC(=O)[C@H](C(C)C)NC2=O)c1 [Compound 1164] ({CH2CO}-Y(Carboxymethyl)[4Pal]D[Phe(3-Me)]V[Bip]V[Orn][dL][Dab][Cha]VTC[Dab][Aun]-OH; thioether N-14) |
| 104 | Cc1cccc(C[C@@H]2NC(=O)[C@H](CC(=O)O)NC(=O)[C@H](Cc3ccncc3)NC(=O)[C@H](Cc3ccc(OCC(=O)O)cc3)NC(=O)CSC[C@@H](C(=O)N[C@@H](CCCN)C(=O)NCCCCCCCCCCC(=O)O)NC(=O)[C@H]([C@@H](C)O)NC(=O)[C@H](C(C)C)NC(=O)[C@H](CC3CCCCC3)NC(=O)[C@H](CCN)NC(=O)[C@@H](CC(C)C)NC(=O)[C@H](CCCN)NC(=O)[C@H](C(C)C)NC(=O)[C@H](Cc3ccc(-c4ccccc4)cc3)NC(=O)[C@H](C(C)C)NC2=O)c1 [Compound 1165] ({CH2CO}-Y(Carboxymethyl)[4Pal]D[Phe(3-Me)]V[Bip]V[Orn][dL][Dab][Cha]VTC[Orn][Aun]-OH; thioether N-14) |
| 28 | Cc1cccc(C[C@@H]2NC(=O)[C@H](CC(=O)O)NC(=O)[C@H](Cc3ccncc3)NC(=O)[C@H](Cc3ccc(OCC(=O)O)cc3)NC(=O)CSC[C@@H](C(=O)N[C@@H](CCCCN)C(=O)NCCCCCCCCCCC(=O)O)NC(=O)[C@H]([C@@H](C)O)NC(=O)[C@H](C(C)C)NC(=O)[C@H](CC3CCCCC3)NC(=O)[C@H](CCN)NC(=O)[C@@H](CC(C)C)NC(=O)[C@H](CCCN)NC(=O)[C@H](C(C)C)NC(=O)[C@H](Cc3ccc(-c4ccccc4)cc3)NC(=O)[C@H](C(C)C)NC2=O)c1 [Compound 1166] ({CH2CO}-Y(Carboxymethyl)[4Pal]D[Phe(3-Me)]V[Bip]V[Orn][dL][Dab][Cha]VTCK[Aun]-OH; thioether N-14) |
